Bridges are numbered along the chain shown (N, C = ends). Where no end group is shown, it is not given here. [ ]: non-standard residue; d: D form. Pra = C#CC[C@H](N)C(=O)O

The text below walks through data of patent publication US20210395313A1, “PEPTIDE PAC1 ANTAGONISTS” (AMGEN INC., priority 2017, published 2021).

In one experiment the target is T1, human PAC1 receptor (Homo sapiens, UniProt P41586).
T1 construct: SHSY-5Y (human neuroblastoma cell line) and RG-2 (rat glioma cell line) cells endogenously express human and rat PAC1 receptors, respectively; endogenous in cells; host or cells: SHSY-5Y human neuroblastoma cells
T1 sequence (P41586 21-468): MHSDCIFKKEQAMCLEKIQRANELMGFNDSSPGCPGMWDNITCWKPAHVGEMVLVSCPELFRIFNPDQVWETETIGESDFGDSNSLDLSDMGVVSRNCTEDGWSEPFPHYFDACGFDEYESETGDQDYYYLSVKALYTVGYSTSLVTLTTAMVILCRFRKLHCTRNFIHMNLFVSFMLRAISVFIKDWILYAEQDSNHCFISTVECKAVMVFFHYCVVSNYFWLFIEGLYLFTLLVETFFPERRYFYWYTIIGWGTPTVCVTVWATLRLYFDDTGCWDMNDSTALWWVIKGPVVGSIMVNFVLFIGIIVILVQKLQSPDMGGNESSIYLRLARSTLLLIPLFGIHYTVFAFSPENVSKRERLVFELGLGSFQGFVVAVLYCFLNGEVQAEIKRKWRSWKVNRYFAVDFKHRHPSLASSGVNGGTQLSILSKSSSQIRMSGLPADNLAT
Nature of the experiment: LANCE Ultra cAMP accumulation antagonist assay in SHSY-5Y cells.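 Further: inhibition of cAMP accumulation evoked by PAC1 agonist at its EC80 in SHSY-5Y cells endogenously expressing receptor, 30 min preincubation then 15 min agonist, TR-FRET readout.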 It is filed as cell-based. On the technique in general: Time-resolved FRET reads energy transfer from a long-lived donor to a nearby acceptor.

The next experiment concerns the target T2, rat PAC1 receptor (Rattus norvegicus, UniProt P32215).
T2 construct: SHSY-5Y (human neuroblastoma cell line) and RG-2 (rat glioma cell line) cells endogenously express human and rat PAC1 receptors, respectively; endogenous in cells; host or cells: RG-2 rat glioma cells
T2 sequence (P32215 20-523): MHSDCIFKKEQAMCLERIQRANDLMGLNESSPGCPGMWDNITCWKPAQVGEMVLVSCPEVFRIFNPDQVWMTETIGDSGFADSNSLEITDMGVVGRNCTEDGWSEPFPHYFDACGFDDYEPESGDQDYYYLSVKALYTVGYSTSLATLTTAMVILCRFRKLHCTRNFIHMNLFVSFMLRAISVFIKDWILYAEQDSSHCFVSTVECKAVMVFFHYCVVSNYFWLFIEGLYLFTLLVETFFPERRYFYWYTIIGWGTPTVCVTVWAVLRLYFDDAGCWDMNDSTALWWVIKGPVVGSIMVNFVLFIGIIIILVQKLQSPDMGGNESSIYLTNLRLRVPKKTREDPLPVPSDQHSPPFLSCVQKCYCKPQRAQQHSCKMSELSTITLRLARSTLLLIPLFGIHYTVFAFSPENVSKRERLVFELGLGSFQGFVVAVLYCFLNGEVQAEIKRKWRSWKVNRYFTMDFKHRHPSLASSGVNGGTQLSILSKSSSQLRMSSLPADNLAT
Nature of the experiment: LANCE Ultra cAMP accumulation antagonist assay in RG-2 cells.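 Further: RG-2 rat glioma cells endogenously expressing PAC1, test peptide preincubated 30 min, then PAC1 agonist added at its EC80 for 15 min, cAMP accumulation read by LANCE Ultra.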 It is filed as cell-based.

Method for human PAC1 receptor: In order to determine the potency of peptide antagonists at the PAC1 receptor, functional cAMP accumulation assays using LANCE Ultra cAMP assay kit to measure the agonist and antagonist activity of PAC1 peptides were used. SHSY-5Y (human neuroblastoma cell line) and RG-2 (rat glioma cell line) cells endogenously express human and rat PAC1 receptors, respectively. Agonist activity of PAC1 peptides was tested by incubating with SHSY-5Y at 2,000 cells per well or RG-2 at 5,000 cells per well for 15 minutes at room temperature. PAC1 receptor agonist PACAP38 or maxadilan was included as a positive control. The reaction was stopped by adding detection mixture, europium (Eu) chelate-labeled cAMP tracer and cAMP-specific monoclonal antibodies labeled with the ULight™ dye, to all wells followed by a 60-minute incubation at room temperature. The assay plates were then read on an EnVision instrument at an emission wavelength of 665 and 615 nm and data were analyzed using Genedata Screener or GraphPad Prism software. A similar procedure was used in the antagonist assays by using a fixed concentration of PAC1 agonist. The concentrations of agonists were chosen based on their ECK) values at PAC1 receptors in SHSY-5Y or RG-2 cells. SHSY-5Y or RG-2 cells were added into 96-well half-area white plates. Serially diluted PAC1 peptides at ten concentrations were added and incubated for 30 minutes at room temperature. PAC1 agonist at EC80 concentration was then added and further incubated for 15 minutes at room temperature. The reaction was stopped by adding detection mixture to all wells followed by a 60-minute incubation at room temperature. The assay plates were read and analyzed the same way as that of agonist assay. Cells, agonists, and PAC1 peptides were prepared in freshly made assay buffer (F-12, 0.5 mM IBMX, 0.1 or 0.4% BSA (pH 7.4)). Detection mixture was made by mixing a 1/50 dilution of the Eu-cAMP tracer stock solution in cAMP Detection Buffer and a 1/150 dilution of the ULight-anti-cAMP stock solution in cAMP Detection Buffer. Europium (Eu) chelate-labeled cAMP tracer, cAMP-specific monoclonal antibodies labeled with the ULight™ dye, BSA, and detection buffer were provided in LANCE Ultra cAMP Kit from PerkinElmer

As a reminder, the IC50 is the concentration that gives 50% inhibition. Higher therefore signals lower potency. For “CDATCQFRKAIDDCQKQAHHSNVPGSVFKLCMKQKKKEFKAG-NH2 (disulfide 1-5, 14-31) [compound 226]”, the IC50 on human PAC1 receptor and on rat PAC1 receptor was 0.01 to 1 nM each time.

With “CDATCQFRKAIDDCQKQAHHSNVPGSVFKTCMKQKKKEFKAG-NH2 (disulfide 1-5, 14-31) [compound 146]”, the IC50 at human PAC1 receptor and at rat PAC1 receptor was 0.01 to 1 nM in each case.

As to “CDATCQFRKAIDDCQKQAHHSNVPGSVFKVCMKQKKKEFKAG-NH2 (disulfide 1-5, 14-31) [compound 211]”, the IC50 on human PAC1 receptor lay within 1 to 100 nM; at rat PAC1 receptor it was 0.01 to 1 nM.

For the substance “CDATCQFRKAIDDCQKQAYHSNVPGNSVFKECMKQKKKEFK-NH2 (disulfide 1-5, 14-32) [compound 306]”, the IC50 against human PAC1 receptor and against rat PAC1 receptor was 1 to 100 nM each time.

“CDATCQFRKAIDDCQRQAHHSNVPGNSVFKECMKQKKKEFK-NH2 (disulfide 1-5, 14-32) [compound 288]”: the half-maximal inhibitory concentration (IC50) at human PAC1 receptor and against rat PAC1 receptor was 1 to 100 nM throughout.

For the substance “CDATCQFRKAIDDCQ[Pra]QAHHSNVPGSVFKACMKQKKKEFKAG-NH2 (disulfide 1-5, 14-31) [compound 33]”, the IC50 against human PAC1 receptor lay within 1 to 100 nM; at rat PAC1 receptor, 0.01 to 1 nM.

Consider “CDATCQFRKAIDDCSWFAIHSNVPGSVFKACMKQKKKEFKAG-NH2 (disulfide 1-5, 14-31) [compound 115]”, for which the IC50 against human PAC1 receptor and at rat PAC1 receptor was 0.01 to 1 nM throughout.

Take “CDATCQFRKAIDDCVFWAAHSNVPGSVFKACMKQKKKEFKAG-NH2 (disulfide 1-5, 14-31) [compound 136]”: the IC50 against human PAC1 receptor and against rat PAC1 receptor was 0.01 to 1 nM throughout.

For the substance “CDATCQFRKAIDDCVKQAHHSNVPGSVFKACMKQKKKEFKAGH (disulfide 1-5, 14-31) [SEQ ID NO 94]”, the IC50 on human PAC1 receptor and against rat PAC1 receptor was 0.01 to 1 nM in each case.

“CDATCQFRKAIDDCVKQAHHSNVPGSVFKACMKQKKKEFKAGY (disulfide 1-5, 14-31) [compound 48]”: the IC50 on human PAC1 receptor and at rat PAC1 receptor was 0.01 to 1 nM in each case.

For “CDATCQFRKAIDDCVRQAHHSNVPGSVFKACMKQKKKEWKAG (disulfide 1-5, 14-31) [compound 82]”, the IC50 against human PAC1 receptor and against rat PAC1 receptor was 0.01 to 1 nM throughout.

For the substance “CDATCQFRKAIDDCVRQAHHSNVPGSVFKACMKQKKKEWKAG-NH2 (disulfide 1-5, 14-31) [compound 79]”, the IC50 was 0.01 to 1 nM against human PAC1 receptor and less than 0.01 nM against rat PAC1 receptor.

Take “CDATCQFRKAIDDCVRQAHHSNVPGSVFKACMKQKKKEWKAGH (disulfide 1-5, 14-31) [SEQ ID NO 156]”: the half-maximal inhibitory concentration (IC50) on human PAC1 receptor and against rat PAC1 receptor was 0.01 to 1 nM each time.

“CDATCQFRKAIDDCVRQAHHSNVPGSVFKACMKQKKKEWKAGY (disulfide 1-5, 14-31) [SEQ ID NO 86]”: the 50% inhibitory concentration (IC50) on human PAC1 receptor and against rat PAC1 receptor was 0.01 to 1 nM each time.

For “CDATCQFRKAIDDCVRQAHHSNVPGSVFKACMKQKKKEWKAH (disulfide 1-5, 14-31) [compound 99]”, the IC50 against human PAC1 receptor and against rat PAC1 receptor was 0.01 to 1 nM each time.

As to “CDATCQFRKAIDDCVRQAHHSNVPGSVFKACMKQKKKEWKAN (disulfide 1-5, 14-31) [compound 87]”, the IC50 on human PAC1 receptor and at rat PAC1 receptor was 0.01 to 1 nM in each case.

As for “CDATCQFRKAIDDCVRQAHHSNVPGSVWKACMKQKKKEWKAGH (disulfide 1-5, 14-31) [compound 106]”, the IC50 on human PAC1 receptor and against rat PAC1 receptor was 0.01 to 1 nM throughout.

As for “CDATCQFRKAIDDCVRQAYHSNVPGSVFKACMKQKKKEWKAGH (disulfide 1-5, 14-31) [compound 84]”, the IC50 against human PAC1 receptor and against rat PAC1 receptor was 0.01 to 1 nM throughout.

On to “CDATCQFRKAIDDCVWFAWHSNVPGSVFKACMKQKKKEFKAG-NH2 (disulfide 1-5, 14-31) [compound 148]”, for which the IC50 against human PAC1 receptor and on rat PAC1 receptor was 0.01 to 1 nM in each case.

For “CDATCQFRKAIDDCVWKAFHANVPGSVFKACMKQKKKEFKAG-NH2 (disulfide 1-5, 14-31) [compound 118]”, the IC50 at human PAC1 receptor and on rat PAC1 receptor was 0.01 to 1 nM each time.

Turning to “CDATCQFRKAIDDCVWYSMHSNVPGSVFKACMKQKKKEFKAG-NH2 (disulfide 1-5, 14-31) [compound 133]”, the IC50 against human PAC1 receptor and at rat PAC1 receptor was 0.01 to 1 nM each time.

Turning to “CDATCQFRKAIDDCVYSAWHANVPGSVFKACMKQKKKEFKAG-NH2 (disulfide 1-5, 14-31) [compound 137]”, the IC50 at human PAC1 receptor and at rat PAC1 receptor was 0.01 to 1 nM throughout.

Turning to “CDATCQFRKAIDDCVYSAWHSNVPGSVFKACMKQKKKEFKAG-NH2 (disulfide 1-5, 14-31) [compound 83]”, the IC50 against human PAC1 receptor and at rat PAC1 receptor was 0.01 to 1 nM throughout.

For the substance “CDATCQFRKAIDDCWIVAWHANVPGSVFKACMKQKKKEFKAG-NH2 (disulfide 1-5, 14-31) [compound 129]”, the half-maximal inhibitory concentration (IC50) at human PAC1 receptor and at rat PAC1 receptor was 0.01 to 1 nM throughout.

Take “CDATCQFRKAIDDCWIVAWHSNVPGSVFKACMKQKKKEFKAG-NH2 (disulfide 1-5, 14-31) [compound 73]”: the IC50 against human PAC1 receptor and on rat PAC1 receptor was 0.01 to 1 nM each time.

On to “CDATCQFRKAIDDCWKQAHHSNVPGSVFKACMKQKKKEFKAG-NH2 (disulfide 1-5, 14-31) [compound 80]”, for which the IC50 was 0.01 to 1 nM on human PAC1 receptor and less than 0.01 nM at rat PAC1 receptor.

For “CDATCQFRKAIDDCWMLSWHANVPGSVFKACMKQKKKEFKAG-NH2 (disulfide 1-5, 14-31) [compound 92]”, the IC50 against human PAC1 receptor and at rat PAC1 receptor was 0.01 to 1 nM throughout.

As for “CDATCQFRKAIDDCWMLSWHANVPGSVFKACMKQKKKEFKAGH (disulfide 1-5, 14-31) [compound 111]”, the IC50 against human PAC1 receptor and against rat PAC1 receptor was 0.01 to 1 nM in each case.

Consider “CDATCQFRKAIDDCWVIAWHSNVPGSVFKACMKQKKKEFKAG-NH2 (disulfide 1-5, 14-31) [compound 130]”, for which the half-inhibitory concentration (IC50) at human PAC1 receptor is 0.01 to 1 nM; against rat PAC1 receptor, less than 0.01 nM.

With “CDATCQFRKAIDDCWVQAWHSNVPGSVFKACMKQKKKEFKAG-NH2 (disulfide 1-5, 14-31) [compound 134]”, the half-inhibitory concentration (IC50) against human PAC1 receptor and against rat PAC1 receptor was 0.01 to 1 nM each time.

As to “CDATCQFRKAIDDCYKQAHHSNVPGSVFKACMKQKKKEFKAGH (disulfide 1-5, 14-31) [compound 47]”, the half-inhibitory concentration (IC50) at human PAC1 receptor and at rat PAC1 receptor was 0.01 to 1 nM throughout.

Consider “CDATCQFRKAIDDCYWIAMHSNVPGSVWKACMKQKKKEFKAG-NH2 (disulfide 1-5, 14-31) [compound 147]”, for which the IC50 against human PAC1 receptor and against rat PAC1 receptor was 0.01 to 1 nM each time.

Turning to “CDATCQFRKAIDDCYWQAIHANVPGSVWKACMKFRFNVWKAG-NH2 (disulfide 1-5, 14-31) [compound 54]”, the IC50 against human PAC1 receptor lay within 1 to 100 nM; at rat PAC1 receptor, 0.01 to 1 nM.

For the substance “CDATCQFRKAIDDCYWQAIHANVPGSVWKACMKQKKKEFKAG-NH2 (disulfide 1-5, 14-31) [compound 138]”, the IC50 against human PAC1 receptor and against rat PAC1 receptor was 0.01 to 1 nM throughout.

“CDATCQFRKAIDDCYYRAWHSNVPGSVFKACMKQKKKEFKAG-NH2 (disulfide 1-5, 14-31) [compound 104]”: the IC50 against human PAC1 receptor and against rat PAC1 receptor was 0.01 to 1 nM throughout.

For the substance “CDATCQFRKAIDDCYYRSHHSNVPGSVFKACMKQKKKEFKAG-NH2 (disulfide 1-5, 14-31) [compound 45]”, the IC50 against human PAC1 receptor and at rat PAC1 receptor was 0.01 to 1 nM each time.

Take “CDATCQFRKAIDDCYYRSHSNVPGSVFKACMKQKKKEFKAG-NH2 (disulfide 1-5, 14-30) [compound 42]”: the IC50 at human PAC1 receptor and on rat PAC1 receptor was 0.01 to 1 nM each time.

As to “CDATCQFRKAIDDCYYRSKHSNVPGSVFKACMKQKKKEFKAG-NH2 (disulfide 1-5, 14-31) [compound 43]”, the IC50 against human PAC1 receptor is 0.01 to 1 nM; against rat PAC1 receptor, less than 0.01 nM.

For “CDATCQFRKAIDDCYYRSRHSNVPGSVFKACMKQKKKEFKAG-NH2 (disulfide 1-5, 14-31) [compound 44]”, the IC50 on human PAC1 receptor is 0.01 to 1 nM; against rat PAC1 receptor it was less than 0.01 nM.

For the substance “CDATCQFRKAIDDCYYRSWHANVPGSVFKACMKQKKKEWKAG-NH2 (disulfide 1-5, 14-31) [compound 60]”, the IC50 on human PAC1 receptor and against rat PAC1 receptor was 0.01 to 1 nM throughout.

As to “CDATCQFRKAIDDCYYRSWHANVPGSVFKACMKQKKKEWKAGN (disulfide 1-5, 14-31) [compound 62]”, the results for the IC50 at human PAC1 receptor and on rat PAC1 receptor were 1 to 100 nM and 0.01 to 1 nM, respectively.

As to “CDATCQFRKAIDDCYYRSWHANVPGSVFKACMKQKKKEWKAGY (disulfide 1-5, 14-31) [compound 66]”, the IC50 on human PAC1 receptor and against rat PAC1 receptor was 0.01 to 1 nM throughout.
